Results published in patent US9636376B2, “Stable compositions of peptide epoxy ketones” (priority 2012, dated 2017).
≈ marks a conversion by molar mass, not a printed value.

Key:
[1] = Effect of pH on saturation solubility of carfilzomib; type: physicochemical; details: aqueous buffer, thermodynamic from solid
From the text: For instance, a buffer is typically used in the liquid pharmaceutical compositions of the invention to control the pH.

[2] = test system: solid and hematologic tumor cells; details: cited from earlier work
proteasome = details: blood and tissue; cited from earlier work
[3] = test system: models of multiple myeloma, hematologic, and solid tumors; details: cited from earlier work

**Q.** Which results are given for CC(C)C[C@H](NC(=O)[C@H](CCc1ccccc1)NC(=O)CN1CCOCC1)C(=O)N[C@@H](Cc1ccccc1)C(=O)N[C@@H](CC(C)C)C(=O)[C@@]1(C)CO1 [Carfilzomib, (2S)—N—((S)-1-((S)-4-methyl-1-((R)-2-methyloxiran-2-yl)-1-oxopentan-2-ylcarbamoyl)-2-phenylethyl)-2-((S)-2-(2-morpholinoacetamido)-4-phenylbutanamido)-4-methylpentanamide]?
**A.** solubility ([1]; 1% L-cysteine solution, pH 1.7 (1% L-Cysteine)): 459 µg/mL (≈ 638 µM); solubility ([1]; pH 3.5 (15 mM Acetate Buffer)): 125 µg/mL (≈ 174 µM); solubility ([1]; pH 5.0 (15 mM Citrate Buffer)): 9 µg/mL (≈ 12.5 µM); solubility ([1]; pH 7.0 (15 mM Phosphate Buffer)): 5 µg/mL (≈ 6.95 µM); Activities in vitro in tumor cells [2]: antiproliferative and proapoptotic activities; Effect on proteasome activity (proteasome): inhibit proteasome activity; Effect on tumor growth [3]: delay tumor growth
